Data reported in article PMC10354048 (Communications Chemistry, 2023).
Values after ≈ are worked out from the molar mass of the structure shown. Where no end group is shown, it is not given here.

Experiments:
[1] = system: S. aureus CW114125; assay: microbe, parasite or virus in culture; settings: broth microdilution per CSLI guidelines, cation-adjusted Mueller Hinton Broth 2, 5 × 10^5 CFU/mL, 37 °C, 20 h, range 64–0.125 µg/mL, average of three repeat assays
Method: (§1) Minimum inhibitory concentrations, determined by broth microdilution, are expressed as an average of three repeat assays. […] [a] MIC values expressed in μg/mL, [b] AC: American Type Culture Collection strain, [c] CW: CANWARD collection clinical isolate strain.33.
(§2) Minimum Inhibitory Concentrations (MIC) were determined for each of the bacteriocins and controls using a broth microdilution method, as per CSLI guidelines for microbial susceptibility testing. The peptides were dissolved in sterile deionized water to prepare the working stocks, with concentrations determined by UV absorbance at 280 nm[56]. Overnight cultures from the strains of interest were incubated with shaking overnight at 37 °C. Cation-adjusted Mueller Hinton Broth 2 (MHB 2) was used for the S. aureus, and S. epidermidis strains and Brain Heart Infusion (BHI) broth was utilized for the E. faecalis and E. faecium strains. The cultures were prepared and diluted to the turbidity of a 0.5 McFarland standard using MHB or BHI fresh media. Increasing concentrations of the leaderless bacteriocins were added to a 96-well polypropylene plate. The range tested for each bacteriocin was 64–0.125 µg/mL. The bacterial culture was further diluted and mixed in a 1:1 ratio with the bacteriocin solution to yield a final concentration in the wells of 5 × 10^5 CFU/mL. […] A 1:1000 dilution of the growth control was prepared in the respective media and plated onto agar (100 μL) to ensure the correct inoculum concentration (5 × 10^5 CFU/mL indicated by ≈ 50 bacterial colonies). The 96-well and agar plates were incubated at 37 °C, and growth was assessed by the formation of a pellet observable with the naked eye after 20 h. […] Each assay was performed in triplicate.
(§3) Materials and instruments […]
(§4) Minimum Inhibitory Concentration (MIC)
(§5) assays were conducted in 96-Well Clear polypropylene corner notch microplates (Corning, #11313595). For the […]

[2] = system: S. aureus CW115852; assay: microbe, parasite or virus in culture; settings: broth microdilution per CSLI guidelines, cation-adjusted Mueller Hinton Broth 2, 5 × 10^5 CFU/mL, 37 °C, 20 h, range 64–0.125 µg/mL, average of three repeat assays
Method: as §1, §2, §3, §4, §5

[3] = system: S. aureus AC29213; assay: microbe, parasite or virus in culture; settings: broth microdilution per CSLI guidelines, cation-adjusted Mueller Hinton Broth 2, 5 × 10^5 CFU/mL, 37 °C, 20 h, range 64–0.125 µg/mL, average of three repeat assays
Method: as §1, §2, §3, §4, §5

[4] = system: S. aureus CW113379; assay: microbe, parasite or virus in culture; settings: broth microdilution per CSLI guidelines, cation-adjusted Mueller Hinton Broth 2, 5 × 10^5 CFU/mL, 37 °C, 20 h, range 64–0.125 µg/mL, average of three repeat assays
Method: as §1, §2, §3, §4, §5

[5] = system: E. faecalis CW133003; assay: microbe, parasite or virus in culture; settings: broth microdilution per CSLI guidelines, Brain Heart Infusion broth, 5 × 10^5 CFU/mL, 37 °C, 20 h, range 64–0.125 µg/mL, average of three repeat assays
Method: as §1, §2, §3, §4, §5

[6] = system: S. epidermidis CW131612; assay: microbe, parasite or virus in culture; settings: broth microdilution per CSLI guidelines, cation-adjusted Mueller Hinton Broth 2, 5 × 10^5 CFU/mL, 37 °C, 20 h, range 64–0.125 µg/mL, average of three repeat assays
Method: as §1, §2, §3, §4, §5

[7] = system: E. faecium CW131126; assay: microbe, parasite or virus in culture; settings: broth microdilution per CSLI guidelines, Brain Heart Infusion broth, 5 × 10^5 CFU/mL, 37 °C, 20 h, range 64–0.125 µg/mL, triplicate
Method: as §2, §3
(§6) Minimum Inhibitory Concentration (MIC) assays were conducted in 96-Well Clear polypropylene corner notch microplates (Corning, #11313595). For the assay media, cation adjusted Mueller Hinton Broth 2 (Sigma Aldrich, #90922) was used for the S. aureus, and S. epidermidis strains and Brain Heart Infusion broth (BD, #221812) was used for the E. faecalis and E. faecium […]
(§7) used, as well as melittin prepared by automated SPPS. Experimental bacterial strains used were procured from the American Type Culture collection (S. aureus 29213) and the Canadian Antimicrobial Resistance Alliance

[8] = system: E. faecalis CW133346; assay: microbe, parasite or virus in culture; settings: broth microdilution per CSLI guidelines, Brain Heart Infusion broth, 5 × 10^5 CFU/mL, 37 °C, 20 h, range 64–0.125 µg/mL, triplicate
Method: as §2, §3, §6, §7

[9] = system: S. epidermidis CW130500; assay: microbe, parasite or virus in culture; settings: broth microdilution per CSLI guidelines, cation-adjusted Mueller Hinton Broth 2, 5 × 10^5 CFU/mL, 37 °C, 20 h, range 64–0.125 µg/mL, triplicate
Method: as §2, §3, §6, §7

[10] = system: E. faecium CW130826; assay: microbe, parasite or virus in culture; settings: broth microdilution per CSLI guidelines, Brain Heart Infusion broth, 5 × 10^5 CFU/mL, 37 °C, 20 h, range 64–0.125 µg/mL, triplicate
Method: as §2, §3, §6, §7

[11] = target: the molecule itself; assay: SEC; analytical size exclusion chromatography in phosphate-buffered saline (pH 7.4), UV 210 nm

Molecule | Minimum inhibitory concentration S. aureus CW114125 [1] | Minimum inhibitory concentration S. aureus CW115852 [2] | Minimum inhibitory concentration S. aureus AC29213 [3] | Minimum inhibitory concentration S. aureus CW113379 [4] | Minimum inhibitory concentration E. faecalis CW133003 [5] | Minimum inhibitory concentration S. epidermidis CW131612 [6] | Minimum inhibitory concentration E. faecium CW131126 [7] | Minimum inhibitory concentration E. faecalis CW133346 [8] | Minimum inhibitory concentration S. epidermidis CW130500 [9] | Minimum inhibitory concentration E. faecium CW130826 [10] | stoichiometry N [11] | binding result [11]
CC[C@H](C)[C@H](NC(=O)CN)C(=O)NCC(=O)N[C@@H](C)C(=O)N[C@H](C(=O)N[C@@H](CC(C)C)C(=O)N[C@@H](CCCCN)C(=O)N[C@H](C(=O)N[C@@H](CC(C)C)C(=O)N[C@H](C(=O)N[C@H](C(=O)NCC(=O)N[C@@H](CC(C)C)C(=O)N1CCC[C@H]1C(=O)N[C@@H](C)C(=O)N[C@@H](CC(C)C)C(=O)N[C@H](C(=O)N[C@@H](CO)C(=O)N[C@@H](Cc1c[nH]c2ccccc12)C(=O)N[C@H](C(=O)N[C@@H](CCCCN)C(=O)N[C@@H](CCCNC(=N)N)C(=O)N[C@@H](CCCCN)C(=O)N[C@@H](CCCNC(=N)N)C(=O)N[C@@H](CCC(N)=O)C(=O)N[C@@H](CCC(N)=O)C(N)=O)[C@@H](C)CC)[C@@H](C)CC)[C@@H](C)O)[C@@H](C)O)C(C)C)C(C)C [Melittin, melittin, reference compound] | 8 µg/mL (≈ 2.81 µM) | 4 µg/mL (≈ 1.41 µM) | 8 µg/mL (≈ 2.81 µM) | 4 µg/mL (≈ 1.41 µM) | 16 µg/mL (≈ 5.62 µM) | 4 µg/mL (≈ 1.41 µM) | 8 µg/mL (≈ 2.81 µM) | 16 µg/mL (≈ 5.62 µM) | 8 µg/mL (≈ 2.81 µM) | 8 µg/mL (≈ 2.81 µM) |  | 
MAGFLKVVQLLAKYGSKAVQWAWANKGKILDWLNAGQAIDWVVSKIKQILGIK-NH2 [L-LnqQ, L-lacticin Q (Met^1-Lys^53)] | 32 µg/mL | 64 µg/mL | 16 µg/mL | 32 µg/mL | 2 µg/mL | 8 µg/mL | 2 µg/mL | 4 µg/mL | 16 µg/mL | 2 µg/mL |  | 
MSWLNFLKYIAKYGKKAVSAAWKYKGKVLEWLNVGPTLEWVWQKLKKIAGL-NH2 [L-AucA, L-aureocin A53 (Met^1-Leu^51)] | 4 µg/mL | 16 µg/mL | 4 µg/mL | 4 µg/mL | 4 µg/mL | 4 µg/mL | 2 µg/mL | 4 µg/mL | 4 µg/mL | 2 µg/mL |  | 
aureocin A53 (L-AucA, wild type) (natural protein, also called AucA-wt; wild-type AucA; source: synthetic: native chemical ligation of two peptide segments and desulfurization, purified by semi-preparative HPLC) MSWLNFLKYIAKYGKKAVSAAWKYKGKVLEWLNVGPTLEWVWQKLKKIAGL |  |  |  |  |  |  |  |  |  |  | 2 | 
AucA-W22L (natural protein, also called W22L variant; source: synthetic: automated SPPS on rink amide protide resin) MSWLNFLKYIAKYGKKAVSAALKYKGKVLEWLNVGPTLEWVWQKLKKIAGL |  |  |  |  |  |  |  |  |  |  |  | binds
